Measurements as given in PMC7356613, “Unsymmetrically-Substituted 5,12-dihydrodibenzo[b,f][1,4]diazocine-6,11-dione Scaffold—A Useful Tool for Bioactive Molecules Design” (Molecules, 2020).
Where two headings read alike, the source gives them in different places.

Assays:
[1] = system: EUFA30 cells; assay: Annexin V-FITC / propidium iodide flow cytometry, EUFA30; format: cell-based, human; conditions: 24 h
Experimental: (§1) HeLa, U87, BICR18, EUFA30 cell lines were cultured in DMEM medium (Life Technology) supplemented with 10% fetal bovine serum (Life Technology) and 0.1% antibiotics, penicillin and streptomycin (Life Technology). Cells were grown in a humidified atmosphere of CO2/air (5/95%) at 37 °C.
(§2) The Annexin V-FITC apoptosis detection kit (BD Biosciences) was used to detect apoptosis by flow cytometry. Cells were seeded at Petri dishes, cultured for 18 h with tested agents applied for 24 h. DMSO was added as the non-treated control and camptothecin (CPT) as the positive control. Subsequently, cells were washed with PBS, resuspended in binding buffer at a concentration of 2 × 10^6 cells/mL, and anti-Annexin V FITC-conjugated antibody and propidium iodide were added to 100 µL aliquots. The mixtures were incubated for 15 min at room temperature, supplemented with binding buffer to 500 µL and processed by BD FACSCalibur (BD Biosciences). Data were analyzed in Flowing Software version 2.5.1 (Flowing Software, http://www.uskonaskel.fi/flowingsoftware).

[2] = system: U87 cells (human primary glioblastoma); assay: Alamar Blue cytotoxicity assay, U87; format: cell-based; conditions: U-87 MG; for IC50: read-out: IC50 based on survival of cells; for inhibition at 300 µM: bracketed values, read-out: proliferation inhibition expressed as a percentage at highest concentration used
Experimental: as §1
(§3) Exponentially growing cells were seeded onto a 96-well plate at the density of 2 × 10^3 cells/well, cultured for 18 h, and treated with newly synthesized derivatives at concentrations 1–300 µM, or with DMSO as a control, for 24 or 48 h. Alamar Blue (Invitrogen) was added accordingly to manufacturer protocol. After 4 h, light emission at 590 nm was measured with excitation at 560 nm using a scanning multiwell spectrophotometer (DTX 880, Beckman Coulter). The experiments were carried out at least three times with three replicates for each inhibitor concentration. After background subtraction, inhibition rate, IC50 was calculated as the concentration of the component inhibiting cell growth by 50%. All the calculations were performed using Origin 9.0 software.

[3] = system: EUFA30 cells (non-cancerous human fibroblasts); assay: Alamar Blue cytotoxicity assay, EUFA30; format: cell-based; conditions: Fibroblast; for IC50: read-out: IC50 based on survival of cells; for inhibition at 300 µM: bracketed values, read-out: proliferation inhibition expressed as a percentage at highest concentration used
Experimental: as §1, §3

[4] = system: HeLa cells (cervix adenocarcinoma); assay: Alamar Blue cytotoxicity assay, HeLa; format: cell-based; conditions: Homo sapiens; for IC50: read-out: IC50 based on survival of cells; for inhibition at 300 µM: bracketed values, read-out: proliferation inhibition expressed as a percentage at highest concentration used
Experimental: as §1, §3

[5] = system: HeLa cells; assay: Annexin V-FITC / propidium iodide flow cytometry, HeLa; format: cell-based; conditions: 24 h; for number of necrotic cells: 200 µM, non-treated control 5.4%
Experimental: as §1, §2

[6] = system: BICR18 cells (laryngeal squamous cell carcinoma); assay: Alamar Blue cytotoxicity assay, BICR18; format: cell-based; conditions: for inhibition at 300 µM: bracketed values, read-out: proliferation inhibition expressed as a percentage at highest concentration used; for IC50: read-out: IC50 based on survival of cells
Experimental: as §1, §3

[7] = system: EUFA30, HeLa, BICR18, U87 cells; assay: Alamar Blue cytotoxicity assay, statements over all tested cell lines; format: cell-based; conditions: Homo sapiens, concentrations 1-300 µM, group range = lowest to highest value, read-out: IC50 across the tested cell lines
Experimental: as §1, §3

[8] = EUFA30, 200 µM, non-treated control 0.3%
[9] = EUFA30, 200 µM, non-treated control 0.4%
[10] = EUFA30, 200 µM, non-treated control 5.7%
[11] = BICR18, 48 h of treatment, N.A. = not active
[12] = EUFA30, positive control, 10 μM

Compound | dead cell fraction: early apoptosis [1, 8] [%] | dead cell fraction: late apoptosis [1, 9] [%] | dead cell fraction: necrosis [1, 10] [%] | IC50 ([2]; U87, 24 h of treatment) [µM] | inhibition at 300 µM ([2]; U87, 48 h) [%] | IC50 ([3]; EUFA30, 24 h of treatment) [µM] | inhibition at 300 µM ([3]; EUFA30, 48 h) [%] | IC50 ([4]; 24 h of treatment) [µM] | inhibition at 300 µM ([4]; 48 h) [%] | number of necrotic cells [5] [%] | inhibition at 300 µM ([6]; BICR18, 24 h) [%] | inhibition at 300 µM ([6]; BICR18, 48 h) [%] | IC50 [7] [µM] | inhibition at 300 µM ([3]; EUFA30, 24 h) [%] | inhibition at 300 µM ([4]; 24 h) [%] | IC50 ([6]; BICR18, 24 h of treatment) [µM] | inhibition at 300 µM ([2]; U87, 24 h) [%] | other results
CN1C(=O)c2ccccc2C(=O)Nc2cc(Cl)c(Cl)cc21 [Compound 3f, 2,3-dichloro-5-methyl-5,12-dihydrodibenzo[b,f][1,4]diazocine-6,11-dione] | 6.9 | 1.6 | 4.3 | 207 ± 23.6 | 29.9 | 320 ± 36 | 19.1 | 298 ± 11 | 7.8 | 15.3 | 47.5 | 7.6 | 93.7 to 323 |  |  |  |  | 
CN1C(=O)c2cc(Cl)c(Cl)cc2C(=O)Nc2ccccc21 [Compound 3g, 8,9-dichloro-5-methyl-5,12-dihydrodibenzo[b,f][1,4]diazocine-6,11-dione] | 5.0 | 1.5 | 6.8 | 323 ± 23.9 | 2.4 |  | 29.5 |  | 5.3 | 8.8 |  | 12.3 | 93.7 to 323 | 41.6 | 43.1 | 266 ± 27.6 |  | 
CN1C(=O)c2c(Cl)c(Cl)c(Cl)c(Cl)c2C(=O)Nc2ccccc21 [Compound 3h, 7,8,9,10-tetrachloro-5-methyl-5,12-dihydrodibenzo[b,f][1,4]diazocine-6,11-dione] | 9.0 | 1.8 | 15.6 | 97.1 ± 13.2 |  | 144 ± 10.6 |  | 132 ± 6 |  | 15.3 |  |  | 93.7 to 323 |  |  | 93.7 ± 5.2 |  | IC50 ([2]; U87, 48 h of treatment, N.A. = not active): 294 ± 22.4 µM; IC50 ([3]; EUFA30, 48 h of treatment, N.A. = not active): 153 ± 4.1 µM; IC50 ([4]; 48 h of treatment, N.A. = not active): 251 ± 5.1 µM; IC50 [6, 11]: 178 ± 3 µM
O=C1Nc2ccccc2N(Cc2ccccc2)C(=O)c2ccccc21 [Compound 3j, 5-benzyl-5,12-dihydrodibenzo[b,f][1,4]diazocine-6,11-dione] |  |  |  |  |  |  | 32.6 |  | 3.3 |  | 42.2 | 6.1 | > 300 | 33.2 | 34.3 |  | 33 | melting point: 205 to 206 °C
CCOC(=O)CN1C(=O)c2cc(Cl)c(Cl)cc2C(=O)N(C)c2ccccc21 [Compound 3n, ethyl 2-(8,9-dichloro-12-methyl-6,11-dioxo-11,12-dihydrodibenzo[b,f][1,4]diazocin-5(6H)-yl)acetate] | 7.8 | 1.4 | 1.9 |  |  |  |  | 311 ± 14.1 |  | 11.3 | 20.9 |  | 93.7 to 323 | 41.5 |  |  | 30.7 | 
CC(=O)N1C(=O)c2ccccc2C(=O)N(Cc2ccccc2)c2ccccc21 [Compound 3o, 5-acetyl-12-benzyl-5,12-dihydrodibenzo[b,f][1,4]diazocine-6,11-dione] | 9.5 | 6.4 | 0.8 | 240 ± 6.1 | 33.8 | 155 ± 14.6 | 41.8 | 169 ± 13.4 | 33.4 | 27.7 |  |  | 93.7 to 323 |  |  | 121 ± 11.4 |  | IC50 [6, 11]: 294 ± 3.2 µM
Nc1ccccc1N1C(=O)c2ccccc2C1=O [Compound 10, 2-(2-aminophenyl)isoindoline-1,3-dione] |  |  |  |  |  |  |  |  |  |  | 11.4 |  |  | 25.6 | 4.9 |  | 22.9 | melting point: 195 to 196 °C
CC[C@@]1(O)C(=O)OCc2c1cc1n(c2=O)Cc2cc3ccccc3nc2-1 [camptothecin, reference compound] |  |  |  |  |  |  |  |  |  |  |  |  |  |  |  |  |  | dead cell fraction: early apoptosis [1, 12]: 4.1%; dead cell fraction: late apoptosis [1, 12]: 6.8%; dead cell fraction: necrosis [1, 12]: 18.7%; necrotic cells ([5]; positive control, 10 μM): 31.2%
